Laboratory results from US20240124417A1, “COMPOUNDS USEFUL AS IMMUNOMODULATORS” (Bristol-Myers Squibb Company, priority 2019, published 2024).

Molecular target: T1, PD-1/PD-L1 (Homo sapiens, UniProt Q9NZQ7)
T1 construct: TVMV protease site linker (C); made in house; host or cells: HEK293T cells
Assay: PD-1/PD-L1 Homogenous Time-Resolved Fluorescence (HTRF) binding assay
Conditions: PD-L1-His 10 nM, PD-1-Ig 20 nM
Source text: The ability of the compounds of the invention to bind to PD-L1 was investigated using a PD-1/PD-L1 Homogenous Time-Resolved Fluorescence (HTRF) binding assay.
Homogenous Time-Resolved Fluorescence (HTRF) binding assay.
The interaction of PD-1 and PD-L1 can be assessed using soluble, purified preparations of the extracellular domains of the two proteins. The PD-1 and PD-L1 protein extracellular domains were expressed as fusion proteins with detection tags, for PD-1, the tag was the Fc portion of Immunoglobulin (PD-1-Ig) and for PD-L1 it was the 6 histidine motif (PD-L1-His). All binding studies were performed in an HTRF assay buffer consisting of dPBS supplemented with 0.1% […] bovine serum albumin and 0.05% (v/v) Tween-20. For the h/PD-L1-His binding assay, inhibitors were pre-incubated with PD-L1-His (10 nM final) for 15 m in 4 μl of assay buffer, followed by addition of PD-1-Ig (20 nM final) in 1 μl of assay buffer and further incubation for 15 m. HTRF detection was achieved using europium crypate-labeled anti-Ig (1 nM final) and allophycocyanin (APC) labeled anti-His (20 nM final). Antibodies were diluted in HTRF detection buffer and 5 μl was dispensed on top of the binding reaction. […] Additional binding assays were established between the human proteins PD-1-Ig/PD-L2-His (20 & 5 nM, respectively) and CD80-His/PD-L1-Ig (100 & 10 nM, respectively). […]

T1 sequence (Q9NZQ7 18-239): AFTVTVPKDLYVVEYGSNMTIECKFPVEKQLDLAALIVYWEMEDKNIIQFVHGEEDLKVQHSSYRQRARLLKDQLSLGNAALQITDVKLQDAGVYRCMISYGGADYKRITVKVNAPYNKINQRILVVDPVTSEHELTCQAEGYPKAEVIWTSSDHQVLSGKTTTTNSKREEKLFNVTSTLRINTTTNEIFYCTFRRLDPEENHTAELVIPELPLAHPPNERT

Compound	IC50 [nM]
Cc1c(COc2cc(OCc3cncc(C#N)c3)c(CNc3nnn[nH]3)cc2Cl)cccc1-c1cccc(OCCCN2CC[C@@H](O)C2)c1C [Example 1001, (R)-5-((2-(((1H-Tetrazol-5-yl)amino)methyl)-4-chloro-5-((3′-(3-(3-hydroxypyrrolidin-1-yl)propoxy)-2,2′-dimethyl-[1,1′-biphenyl]-3-yl)methoxy)phenoxy)methyl)nicotinonitrile]	4.9
Cc1c(COc2cc(OCc3cncc(C#N)c3)c(CNCc3nnn[nH]3)cc2Cl)cccc1-c1cccc(OCCCN2CC[C@@H](O)C2)c1C [Example 1002, (R)-5-((2-((((1H-Tetrazol-5-yl)methyl)amino)methyl)-4-chloro-5-((3′-(3-(3-hydroxy-pyrrolidin-1-yl)propoxy)-2,2′-dimethyl-[1,1′-biphenyl]-3-yl)methoxy)phenoxy)methyl)-nicotinonitrile]	2.9
Cc1c(COc2cc(OCc3cncc(C#N)c3)c(CN3CCCC(c4ncc[nH]4)C3)cc2Cl)cccc1-c1cccc(OCCCN2CC[C@@H](O)C2)c1C (stereo partly drawn) [Example 1003, 5-((2-((3-(1H-Imidazol-2-yl)piperidin-1-yl)methyl)-4-chloro-5-((3′-(3-((R)-3-hydroxy-pyrrolidin-1-yl)propoxy)-2,2′-dimethyl-[1,1′-biphenyl]-3-yl)methoxy)phenoxy)methyl)-nicotinonitrile]	1.4
Cc1c(COc2cc(OCc3cncc(C#N)c3)c(CN(C)CCc3nn[nH]n3)cc2Cl)cccc1-c1cccc(OCCCN2CC[C@@H](O)C2)c1C [Example 1004, (R)-5-((2-(((2-(2H-Tetrazol-5-yl)ethyl)(methyl)amino)methyl)-4-chloro-5-((3′-(3-(3-hydroxypyrrolidin-1-yl)propoxy)-2,2′-dimethyl-[1,1′-biphenyl]-3-yl)methoxy)phenoxy)-methyl)nicotinonitrile]	1.1
Cc1c(COc2cc(OCc3cncc(C#N)c3)c(CN(C)C(C)c3nnn[nH]3)cc2Cl)cccc1-c1cccc(OCCCN2CC[C@@H](O)C2)c1C (stereo partly drawn) [Example 1005, 5-((2-(((1-(1H-Tetrazol-5-yl)ethyl)(methyl)amino)methyl)-4-chloro-5-((3′-(3-((R)-3-hydroxypyrrolidin-1-yl)propoxy)-2,2′-dimethyl-[1,1′-biphenyl]-3-yl)methoxy)phenoxy)methyl)nicotinonitrile]	2.3
Cc1c(COc2cc(OCc3cncc(C#N)c3)c(CN(C)CC(C)c3nnn[nH]3)cc2Cl)cccc1-c1cccc(OCCCN2CC[C@@H](O)C2)c1C (stereo partly drawn) [Example 1006, 5-((2-(((2-(1H-Tetrazol-5-yl)propyl)(methyl)amino)methyl)-4-chloro-5-((3′-(3-((R)-3-hydroxypyrrolidin-1-yl)propoxy)-2,2′-dimethyl-[1,1′-biphenyl]-3-yl)methoxy)phenoxy)methyl)nicotinonitrile]	2.7
CCN(Cc1nnn[nH]1)Cc1cc(Cl)c(OCc2cccc(-c3cccc(OCCCN4CC[C@@H](O)C4)c3C)c2C)cc1OCc1cncc(C#N)c1 [Example 1007, (R)-5-((2-((((1H-Tetrazol-5-yl)methyl)(ethyl)amino)methyl)-4-chloro-5-((3′-(3-(3-hydroxypyrrolidin-1-yl)propoxy)-2,2′-dimethyl-[1,1′-biphenyl]-3-yl)methoxy)phenoxy)methyl)nicotinonitrile]	3
Cc1c(COc2cc(OCc3cncc(C#N)c3)c(CN3CCCC(c4nnc[nH]4)C3)cc2Cl)cccc1-c1cccc(OCCCN2CC[C@@H](O)C2)c1C (stereo partly drawn) [Example 1008, 5-((2-((3-(4H-1,2,4-Triazol-3-yl)piperidin-1-yl)methyl)-4-chloro-5-((3′-(3-((R)-3-hydroxypyrrolidin-1-yl)propoxy)-2,2′-dimethyl-[1,1′-biphenyl]-3-yl)methoxy)phenoxy)-methyl)nicotinonitrile]	4.2
Cc1c(COc2cc(OCc3cncc(C#N)c3)c(CN3CCCCC3c3ncc[nH]3)cc2Cl)cccc1-c1cccc(OCCCN2CC[C@@H](O)C2)c1C (stereo partly drawn) [Example 1009, 5-((2-((2-(1H-Imidazol-2-yl)piperidin-1-yl)methyl)-4-chloro-5-((3′-(3-((R)-3-hydroxy-pyrrolidin-1-yl)propoxy)-2,2′-dimethyl-[1,1′-biphenyl]-3-yl)methoxy)phenoxy)methyl)-nicotinonitrile]	0.5
Cc1c(COc2cc(OCc3cncc(C#N)c3)c(CN3CCCCC3c3nc(=O)[nH][nH]3)cc2Cl)cccc1-c1cccc(OCCCN2CC[C@@H](O)C2)c1C (stereo partly drawn) [Example 1010, 5-((4-Chloro-5-((3′-(3-((R)-3-hydroxypyrrolidin-1-yl)propoxy)-2,2′-dimethyl-[1,1′-biphenyl]-3-yl)methoxy)-2-((2-(5-oxo-2,5-dihydro-1H-1,2,4-triazol-3-yl)piperidin-1-yl)-methyl)phenoxy)methyl)nicotinonitrile]	5.3
Cc1c(COc2cc(OCc3cncc(C#N)c3)c(CN3CCCCC3c3cn[nH]c3)cc2Cl)cccc1-c1cccc(OCCCN2CC[C@@H](O)C2)c1C (stereo partly drawn) [Example 1011, 5-((2-((2-(1H-Pyrazol-4-yl)piperidin-1-yl)methyl)-4-chloro-5-((3′-(3-((R)-3-hydroxy-pyrrolidin-1-yl)propoxy)-2,2′-dimethyl-[1,1′-biphenyl]-3-yl)methoxy)phenoxy)methyl)-nicotinonitrile]	17.5
Cc1c(COc2cc(OCc3cncc(C#N)c3)c(CN3CCCCC3c3nnn[nH]3)cc2Cl)cccc1-c1cccc(OCCCN2CC[C@@H](O)C2)c1C (stereo partly drawn) [Example 1012, 5-((2-((2-(1H-Tetrazol-5-yl)piperidin-1-yl)methyl)-4-chloro-5-((3′-(3-((R)-3-hydroxy-pyrrolidin-1-yl)propoxy)-2,2′-dimethyl-[1,1′-biphenyl]-3-yl)methoxy)phenoxy)methyl)-nicotinonitrile]	0.7
Cc1c(COc2cc(OCc3cncc(C#N)c3)c(CNCC(C)c3nnn[nH]3)cc2Cl)cccc1-c1cccc(OCCCN2CC[C@@H](O)C2)c1C (stereo partly drawn) [Example 1013, 5-((2-(((2-(1H-Tetrazol-5-yl)propyl)amino)methyl)-4-chloro-5-((3′-(3-((R)-3-hydroxy-pyrrolidin-1-yl)propoxy)-2,2′-dimethyl-[1,1′-biphenyl]-3-yl)methoxy)phenoxy)methyl)-nicotinonitrile]	3.2
Cc1c(COc2cc(OCc3cncc(C#N)c3)c(CNCCc3nnnn3C)cc2Cl)cccc1-c1cccc(OCCCN2CC[C@@H](O)C2)c1C [Example 1014, (R)-5-((4-Chloro-5-((3′-(3-(3-hydroxypyrrolidin-1-yl)propoxy)-2,2′-dimethyl-[1,1′-biphenyl]-3-yl)methoxy)-2-(((2-(1-methyl-1H-tetrazol-5-yl)ethyl)amino)methyl)-phenoxy)methyl)nicotinonitrile]	2.9
Cc1c(COc2cc(OCc3cncc(C#N)c3)c(CN3CCCC3c3nnn[nH]3)cc2Cl)cccc1-c1cccc(OCCCN2CC[C@@H](O)C2)c1C (stereo partly drawn) [Example 1015, 5-((2-((2-(1H-Tetrazol-5-yl)pyrrolidin-1-yl)methyl)-4-chloro-5-((3′-(3-((R)-3-hydroxy-pyrrolidin-1-yl)propoxy)-2,2′-dimethyl-[1,1′-biphenyl]-3-yl)methoxy)phenoxy)methyl)-nicotinonitrile]	2.9
Cc1c(COc2cc(OCc3cncc(C#N)c3)c(CN(C)Cc3nnn[nH]3)cc2Cl)cccc1-c1cccc(OCCCN2CC[C@@H](O)C2)c1C [Example 1016, (R)-5-((2-((((1H-Tetrazol-5-yl)methyl)(methyl)amino)methyl)-4-chloro-5-((3′-(3-(3-hydroxypyrrolidin-1-yl)propoxy)-2,2′-dimethyl-[1,1′-biphenyl]-3-yl)methoxy)phenoxy)-methyl)nicotinonitrile]	1.9
Cc1c(COc2cc(OCc3cncc(C#N)c3)c(CN3CCC(c4nnn[nH]4)C3)cc2Cl)cccc1-c1cccc(OCCCN2CC[C@@H](O)C2)c1C (stereo partly drawn) [Example 1017, 5-((2-((3-(1H-Tetrazol-5-yl)pyrrolidin-1-yl)methyl)-4-chloro-5-((3′-(3-((R)-3-hydroxy-pyrrolidin-1-yl)propoxy)-2,2′-dimethyl-[1,1′-biphenyl]-3-yl)methoxy)phenoxy)methyl)-nicotinonitrile]	1.9
Cc1c(COc2cc(OCc3cncc(C#N)c3)c(CN3CCCC(c4nnn[nH]4)C3)cc2Cl)cccc1-c1cccc(OCCCN2CC[C@@H](O)C2)c1C (stereo partly drawn) [Example 1018, 5-((2-((3-(1H-Tetrazol-5-yl)piperidin-1-yl)methyl)-4-chloro-5-((3′-(3-((R)-3-hydroxy-pyrrolidin-1-yl)propoxy)-2,2′-dimethyl-[1,1′-biphenyl]-3-yl)methoxy)phenoxy)methyl)-nicotinonitrile]	0.5
Cc1c(COc2cc(OCc3cncc(C#N)c3)c(CN3CCCCC3c3cn[nH]c3)cc2Cl)cccc1-c1cccc(OCC2CCCN(C)C2)c1Cl (stereo not shown) [Example 1020, 5-((2-((2-(1H-Pyrazol-4-yl)piperidin-1-yl)methyl)-4-chloro-5-((2′-chloro-2-methyl-3′-((1-methylpiperidin-3-yl)methoxy)-[1,1′-biphenyl]-3-yl)methoxy)phenoxy)methyl)-nicotinonitrile]	2.8
